biological target: IGF1-receptor (Homo sapiens, UniProt P08069); assay: IGF1-Receptor Tyrosine Kinase Assay; format: biochemical; conditions: ATP 25 μM; FL-peptide 1.5 μM; IGF1-Receptor 14 nM; 60 min room temperature; Caliper LabChip 3000; read-out: IGF-1R IC50
Method: D. IGF1-Receptor Tyrosine Kinase Assay
The assays were performed in U-bottom 384-well plates. The final assay volume was 30 μl prepared from 15 μl additions of enzyme and substrates (fluoresceinated IGF1R substrate peptide and ATP) and test compounds in assay buffer (100 mM HEPES pH 7.4, 10 mM MnCl2, 0.015% Brij35 and 4 mM DTT). The reaction was initiated by the combination of IGF1-receptor with substrates and test compounds. The reaction was incubated at room temperature for 60 min. and terminated by adding 30 μl of 35 mM EDTA to each sample. The reaction mixture was analyzed on the Caliper LabChip 3000 by electrophoretic separation of the fluorescent substrate and phosphorylated product. Inhibition data were calculated by comparison to no enzyme control reactions for 100% inhibition and vehicle-only reactions for 0% inhibition. The final concentration of reagents in the assays is ATP, 25 μM; FL-peptide, 1.5 μM; IGF1-Receptor, 14 nM; and DMSO, 1.6%. Dose response curves were generated to determine the concentration required inhibiting 50% of kinase activity (IC50). Compounds were dissolved at 10 mM in dimethylsulfoxide (DMSO) and evaluated at eleven concentrations, each in duplicate. IC50 values were derived by non-linear regression analysis
Compounds described herein were tested in the above assay.

IGF1-receptor, sequence (P08069 31-1367): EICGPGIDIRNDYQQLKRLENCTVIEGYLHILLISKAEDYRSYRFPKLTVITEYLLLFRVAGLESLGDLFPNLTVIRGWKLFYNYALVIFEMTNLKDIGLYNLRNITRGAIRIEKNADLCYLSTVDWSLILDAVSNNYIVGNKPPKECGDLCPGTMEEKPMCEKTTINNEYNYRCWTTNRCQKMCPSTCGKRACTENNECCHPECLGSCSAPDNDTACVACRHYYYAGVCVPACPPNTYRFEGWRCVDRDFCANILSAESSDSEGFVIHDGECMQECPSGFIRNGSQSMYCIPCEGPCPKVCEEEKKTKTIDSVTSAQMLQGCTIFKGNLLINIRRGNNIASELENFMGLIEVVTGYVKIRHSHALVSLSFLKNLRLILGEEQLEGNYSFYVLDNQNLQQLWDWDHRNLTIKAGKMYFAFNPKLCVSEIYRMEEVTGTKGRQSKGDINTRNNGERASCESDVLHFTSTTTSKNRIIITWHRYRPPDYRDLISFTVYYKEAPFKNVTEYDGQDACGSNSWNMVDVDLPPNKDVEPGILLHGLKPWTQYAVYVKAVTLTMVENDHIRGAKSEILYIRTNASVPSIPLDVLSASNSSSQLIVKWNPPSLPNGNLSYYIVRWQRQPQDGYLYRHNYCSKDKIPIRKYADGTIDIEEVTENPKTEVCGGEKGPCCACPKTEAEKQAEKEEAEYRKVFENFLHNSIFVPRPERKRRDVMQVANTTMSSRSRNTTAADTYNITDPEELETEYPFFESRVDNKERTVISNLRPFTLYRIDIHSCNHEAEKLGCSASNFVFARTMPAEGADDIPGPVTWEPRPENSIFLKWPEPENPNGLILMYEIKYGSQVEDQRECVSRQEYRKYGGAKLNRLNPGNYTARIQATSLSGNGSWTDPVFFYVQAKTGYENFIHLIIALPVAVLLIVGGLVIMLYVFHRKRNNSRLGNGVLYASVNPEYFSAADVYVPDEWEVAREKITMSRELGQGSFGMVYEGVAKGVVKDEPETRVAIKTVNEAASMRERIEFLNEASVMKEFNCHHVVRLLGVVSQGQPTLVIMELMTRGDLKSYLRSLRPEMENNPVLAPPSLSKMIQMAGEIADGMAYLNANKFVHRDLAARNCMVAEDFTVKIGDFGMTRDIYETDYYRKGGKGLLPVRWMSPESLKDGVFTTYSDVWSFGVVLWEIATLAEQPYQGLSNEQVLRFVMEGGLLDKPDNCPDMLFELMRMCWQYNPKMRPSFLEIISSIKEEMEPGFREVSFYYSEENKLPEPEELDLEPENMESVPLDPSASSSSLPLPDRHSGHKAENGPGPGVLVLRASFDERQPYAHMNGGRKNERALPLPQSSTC

Question: How did the IC50 turn out when `CCOC(=O)c1cccc(Sc2cc(Nc3ncnn4cccc34)n[nH]2)c1` [Example 1, Ethyl 3-(3-(pyrrolo[1,2-f][1,2,4]triazin-4-ylamino)-1H-pyrazol-5-ylthio)benzoate] was run?
Answer: > 25000 nM

Question: How did the IC50 turn out when `O=C(NC1CN(S(=O)(=O)c2ccccc2)C1)c1cccc(Sc2cc(Nc3ncnn4cccc34)n[nH]2)c1` [Example 3, N-(1-(Phenylsulfonyl)azetidin-3-yl)-3-(3-pyrrolo[1,2-f][1,2,4]triazin-4-ylamino-1H-pyrazol-5-ylthio)benzamide] was run?
Answer: 12.4 nM

Question: How did the IC50 turn out when `NC(=O)c1cccc(Sc2cc(Nc3ncnn4cccc34)n[nH]2)c1` [Example 4, 3-(3-(Pyrrolo[1,2-f][1,2,4]triazin-4-ylamino)-1H-pyrazol-5-ylthio)benzamide] was run?
Answer: 4470 nM

Question: `CC(C)(C)OC(=O)N1CC(NC(=O)c2cccc(Sc3cc(Nc4ncnn5cccc45)n[nH]3)c2)C1` [Example 5] was tested. Which IC50 did it give?
Answer: 295 nM

Question: Which IC50 does the source give for `O=C(NCCc1c[nH]cn1)c1cccc(Sc2cc(Nc3ncnn4cccc34)n[nH]2)c1` [Example 8, N-(2-(1H-Imidazol-4-yl)ethyl)-3-(3-(pyrrolo[1,2-f][1,2,4]triazin-4-ylamino)-1H-pyrazol-5-ylthio)benzamide] here?
Answer: 3190 nM

Question: For `O=C(NC1CN(S(=O)(=O)c2ccc(F)cc2)C1)c1cccc(Sc2cc(Nc3ccccn3)n[nH]2)c1` [Example 10, N-(1-(4-Fluorophenylsulfonyl)azetidin-3-yl)-3-(3-(pyridin-2-ylamino)-1H-pyrazol-5-ylthio)benzamide], which IC50 is on record?
Answer: 15.1 nM
